Laboratory results as given in ChEMBL document CHEMBL2203257 (Bioorg Med Chem Lett, 2012).
pIC50: −log10 of the molar value.

Assays:
[1] = molecular target: Eukaryotic translation initiation factor 2-alpha kinase 1 (Homo sapiens, UniProt Q9BQI3); assay: Inhibition of EIF2AK1
[2] = Cmax in rat […] at 5 mg/kg, po; 1 mg/kg, iv; type: ADME, organism-based
[3] = molecular target: Cyclin-dependent kinase 2 (Homo sapiens, UniProt P24941); assay: Inhibition of CDK2
[4] = molecular target: Mitogen-activated protein kinase kinase kinase 20 (Homo sapiens, UniProt Q9NYL2); assay: Inhibition of ZAK
Aurora kinase B = Aurora kinase B (Homo sapiens, UniProt Q96GD4); assay: Inhibition of AURKB
[5] = molecular target: Calcium/calmodulin-dependent protein kinase type 1D (Homo sapiens, UniProt Q8IU85); assay: Inhibition of CAMK1D
[6] = molecular target: Bromodomain-containing protein 4 (Homo sapiens, UniProt O60885); assay: Inhibition of BRD4
[7] = molecular target: Serine/threonine-protein kinase D2 (Homo sapiens, UniProt Q9BZL6); assay: Inhibition of PRKD2
[8] = molecular target: 5'-AMP-activated protein kinase catalytic subunit alpha-1 (Homo sapiens, UniProt Q13131); assay: Inhibition of PRKAA1
[9] = molecular target: Phosphatidylinositol 5-phosphate 4-kinase type-2 gamma (Homo sapiens, UniProt Q8TBX8); assay: Inhibition of PIP4K2C
[10] = molecular target: 3-phosphoinositide-dependent protein kinase 1 (Homo sapiens, UniProt O15530); assay: Inhibition of PDPK1
[11] = molecular target: Serine/threonine-protein kinase Nek2 (Homo sapiens, UniProt P51955); assay: Inhibition of NEK2
Mus musculus [12] = assay: Antiarthritic activity against collagen-induced arthritis mouse model assessed as mean clinical arthritis score with AUC calculation in at 0.01 mg/kg, po BID for 14 days; type: functional
TGF-beta receptor type-1 = TGF-beta receptor type-1 (Homo sapiens, UniProt P36897); assay: Inhibition of TGFBR1
[13] = molecular target: Tyrosine-protein kinase ITK/TSK (Homo sapiens, UniProt Q08881); assay: Inhibition of ITK
[14] = molecular target: Tyrosine-protein kinase Fer (Homo sapiens, UniProt P16591); assay: Inhibition of FER
[15] = molecular target: Phosphorylase b kinase gamma catalytic chain, liver/testis isoform (Homo sapiens, UniProt P15735); assay: Inhibition of PHKG2
[16] = molecular target: Voltage-gated inwardly rectifying potassium channel KCNH2 (Homo sapiens, UniProt Q12809); assay: Inhibition of human ERG at >250 uM by patch clamp method
[17] = molecular target: Calcium/calmodulin-dependent protein kinase type IV (Homo sapiens, UniProt Q16566); assay: Inhibition of CAMK4
Mus musculus [18] = assay: Antiinflammatory activity in mouse air pouch model assessed as effect on IL-8-induced migration of granulocytes into air pouch at 1 mg/kg, po; type: functional
[19] = Oral bioavailability in cynomolgus monkey; type: ADME, organism-based, Macaca fascicularis; settings: in vivo
[20] = molecular target: Serine/threonine-protein kinase RIO2 (Homo sapiens, UniProt Q9BVS4); assay: Inhibition of RIOK2
[21] = molecular target: Casein kinase II subunit alpha (Homo sapiens, UniProt P68400); assay: Inhibition of CSNK2A1
[22] = Half life in rat […] at 5 mg/kg, po; 1 mg/kg, iv; type: ADME, organism-based
[23] = molecular target: Tyrosine-protein kinase Lyn (Homo sapiens, UniProt P07948); assay: Inhibition of LYN
[24] = molecular target: T1, Phosphatidylinositol 4,5-bisphosphate 3-kinase catalytic subunit delta isoform (Homo sapiens, UniProt O00329); assay: Inhibition of PIK3Cd
T1 sequence (O00329 whole entry): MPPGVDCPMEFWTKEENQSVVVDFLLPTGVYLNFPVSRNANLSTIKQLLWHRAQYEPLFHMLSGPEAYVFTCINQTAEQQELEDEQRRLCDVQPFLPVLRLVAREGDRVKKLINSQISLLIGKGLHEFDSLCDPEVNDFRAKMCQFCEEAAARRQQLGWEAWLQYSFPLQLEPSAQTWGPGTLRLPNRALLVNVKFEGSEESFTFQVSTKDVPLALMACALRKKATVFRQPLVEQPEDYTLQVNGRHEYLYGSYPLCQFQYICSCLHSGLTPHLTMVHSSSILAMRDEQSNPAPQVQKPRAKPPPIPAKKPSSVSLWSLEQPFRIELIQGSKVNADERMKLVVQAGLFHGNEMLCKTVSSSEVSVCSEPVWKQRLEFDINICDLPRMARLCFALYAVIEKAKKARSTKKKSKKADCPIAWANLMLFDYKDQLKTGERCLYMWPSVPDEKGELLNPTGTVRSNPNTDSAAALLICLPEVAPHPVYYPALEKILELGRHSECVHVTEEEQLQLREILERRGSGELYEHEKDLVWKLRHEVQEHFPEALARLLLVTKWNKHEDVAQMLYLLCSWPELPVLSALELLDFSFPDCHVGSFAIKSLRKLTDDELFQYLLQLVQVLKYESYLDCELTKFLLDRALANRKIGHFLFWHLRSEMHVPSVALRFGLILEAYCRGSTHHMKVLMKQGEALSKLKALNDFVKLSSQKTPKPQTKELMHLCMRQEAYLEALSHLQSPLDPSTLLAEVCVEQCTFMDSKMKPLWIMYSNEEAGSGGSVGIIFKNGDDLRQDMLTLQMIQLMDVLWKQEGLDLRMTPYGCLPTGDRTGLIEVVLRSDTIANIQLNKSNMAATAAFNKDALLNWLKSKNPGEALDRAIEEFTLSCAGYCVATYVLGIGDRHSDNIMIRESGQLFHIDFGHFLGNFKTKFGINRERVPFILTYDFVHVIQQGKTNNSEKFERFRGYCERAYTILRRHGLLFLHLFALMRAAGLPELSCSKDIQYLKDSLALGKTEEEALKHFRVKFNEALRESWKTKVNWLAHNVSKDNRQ

[25] = molecular target: Epidermal growth factor receptor (Homo sapiens, UniProt P00533); assay: Inhibition of EGFR
[26] = molecular target: Phosphatidylinositol 4,5-bisphosphate 3-kinase catalytic subunit gamma isoform (Homo sapiens, UniProt P48736); assay: Inhibition of PIK3Cg
[27] = molecular target: Dual specificity mitogen-activated protein kinase kinase 2 (Homo sapiens, UniProt P36507); assay: Inhibition of MAP2K2
[28] = molecular target: Serine/threonine-protein kinase 16 (Homo sapiens, UniProt O75716); assay: Inhibition of STK16
[29] = molecular target: Serine/threonine-protein kinase B-raf (Homo sapiens, UniProt P15056); assay: Inhibition of BRAF
Cytochrome P450 3A4 = Cytochrome P450 3A4 (Homo sapiens, UniProt P08684); assay: Inhibition of CYP3A4 at >20 uM; type: ADME
Aurora kinase A = Aurora kinase A (Homo sapiens, UniProt O14965); assay: Inhibition of AURKA
[30] = molecular target: Interleukin-1 receptor-associated kinase 3 (Homo sapiens, UniProt Q9Y616); assay: Inhibition of IRAK3
[31] = Clearance in cynomolgus monkey; type: ADME, organism-based, Macaca fascicularis; settings: in vivo
[32] = AUC in rat […] at 5 mg/kg, po; 1 mg/kg, iv; type: ADME, organism-based
Activin receptor type-2B = Activin receptor type-2B (Homo sapiens, UniProt Q13705); assay: Inhibition of ACVR2B

Phosphatidylinositol 5-phosphate 4-kinase type-2 gamma, sequence (Q8TBX8 whole entry): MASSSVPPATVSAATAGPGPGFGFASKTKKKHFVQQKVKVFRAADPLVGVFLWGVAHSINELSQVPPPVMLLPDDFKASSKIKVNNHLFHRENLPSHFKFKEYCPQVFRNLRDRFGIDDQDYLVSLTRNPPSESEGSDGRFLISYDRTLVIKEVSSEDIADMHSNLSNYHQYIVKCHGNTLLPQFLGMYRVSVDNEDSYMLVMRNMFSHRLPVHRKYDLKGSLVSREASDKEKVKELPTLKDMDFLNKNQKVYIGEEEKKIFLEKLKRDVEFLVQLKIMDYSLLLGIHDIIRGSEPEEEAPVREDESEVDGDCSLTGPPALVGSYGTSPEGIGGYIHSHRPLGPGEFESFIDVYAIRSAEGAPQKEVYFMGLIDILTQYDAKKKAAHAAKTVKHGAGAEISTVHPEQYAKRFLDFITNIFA
Phosphorylase b kinase gamma catalytic chain, liver/testis isoform, sequence (P15735 whole entry, canonical isoform): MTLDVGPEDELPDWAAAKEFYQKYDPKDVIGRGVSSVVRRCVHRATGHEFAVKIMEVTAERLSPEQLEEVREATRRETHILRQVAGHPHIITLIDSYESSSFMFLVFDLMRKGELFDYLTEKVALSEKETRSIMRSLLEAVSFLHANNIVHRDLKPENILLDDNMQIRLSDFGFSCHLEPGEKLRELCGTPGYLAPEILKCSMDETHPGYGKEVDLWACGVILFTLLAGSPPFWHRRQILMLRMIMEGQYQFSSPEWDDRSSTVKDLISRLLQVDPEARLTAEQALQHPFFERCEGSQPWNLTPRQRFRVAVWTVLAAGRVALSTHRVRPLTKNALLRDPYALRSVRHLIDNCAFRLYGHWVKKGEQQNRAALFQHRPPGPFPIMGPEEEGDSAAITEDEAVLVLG
Voltage-gated inwardly rectifying potassium channel KCNH2, sequence (Q12809 whole entry): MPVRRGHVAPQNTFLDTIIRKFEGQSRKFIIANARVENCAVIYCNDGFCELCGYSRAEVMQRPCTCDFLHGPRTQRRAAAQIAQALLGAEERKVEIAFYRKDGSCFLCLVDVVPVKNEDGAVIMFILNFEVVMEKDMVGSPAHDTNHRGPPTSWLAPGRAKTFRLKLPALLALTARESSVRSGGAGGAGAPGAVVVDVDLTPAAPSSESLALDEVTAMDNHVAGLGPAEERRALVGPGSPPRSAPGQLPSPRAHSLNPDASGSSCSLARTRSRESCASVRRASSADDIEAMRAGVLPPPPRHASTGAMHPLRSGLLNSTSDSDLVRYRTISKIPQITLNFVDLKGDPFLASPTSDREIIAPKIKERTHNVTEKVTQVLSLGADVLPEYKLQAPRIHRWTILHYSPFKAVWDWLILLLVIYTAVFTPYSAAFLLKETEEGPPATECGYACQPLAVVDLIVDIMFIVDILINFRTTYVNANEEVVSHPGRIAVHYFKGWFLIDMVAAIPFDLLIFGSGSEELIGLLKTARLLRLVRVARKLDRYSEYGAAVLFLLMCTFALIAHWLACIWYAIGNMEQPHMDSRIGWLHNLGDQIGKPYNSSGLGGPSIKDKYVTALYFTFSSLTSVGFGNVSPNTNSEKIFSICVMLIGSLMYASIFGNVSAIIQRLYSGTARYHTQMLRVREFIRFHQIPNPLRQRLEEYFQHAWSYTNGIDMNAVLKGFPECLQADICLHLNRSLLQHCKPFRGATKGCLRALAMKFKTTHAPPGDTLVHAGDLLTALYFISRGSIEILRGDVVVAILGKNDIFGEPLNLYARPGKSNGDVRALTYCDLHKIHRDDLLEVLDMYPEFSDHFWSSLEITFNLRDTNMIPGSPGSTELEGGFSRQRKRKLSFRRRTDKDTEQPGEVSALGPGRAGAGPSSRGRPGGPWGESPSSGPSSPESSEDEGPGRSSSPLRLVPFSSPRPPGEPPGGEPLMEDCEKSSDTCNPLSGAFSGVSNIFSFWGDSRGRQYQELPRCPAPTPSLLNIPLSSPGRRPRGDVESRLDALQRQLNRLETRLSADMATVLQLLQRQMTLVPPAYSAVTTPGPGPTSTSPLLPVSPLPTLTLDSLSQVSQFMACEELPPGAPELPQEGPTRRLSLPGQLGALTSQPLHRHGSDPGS
Dual specificity mitogen-activated protein kinase kinase 2, sequence (P36507 whole entry): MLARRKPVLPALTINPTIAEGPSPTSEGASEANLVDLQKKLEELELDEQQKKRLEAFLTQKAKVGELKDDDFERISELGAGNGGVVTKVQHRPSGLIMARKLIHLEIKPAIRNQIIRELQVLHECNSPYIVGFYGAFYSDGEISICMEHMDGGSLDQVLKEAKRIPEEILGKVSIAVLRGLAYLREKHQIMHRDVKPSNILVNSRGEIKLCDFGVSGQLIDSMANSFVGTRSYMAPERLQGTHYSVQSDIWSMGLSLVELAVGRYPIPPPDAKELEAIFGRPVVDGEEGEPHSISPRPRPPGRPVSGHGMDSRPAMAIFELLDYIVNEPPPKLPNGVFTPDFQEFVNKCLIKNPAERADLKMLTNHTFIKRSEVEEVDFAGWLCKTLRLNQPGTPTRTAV
Serine/threonine-protein kinase Nek2, sequence (P51955 whole entry): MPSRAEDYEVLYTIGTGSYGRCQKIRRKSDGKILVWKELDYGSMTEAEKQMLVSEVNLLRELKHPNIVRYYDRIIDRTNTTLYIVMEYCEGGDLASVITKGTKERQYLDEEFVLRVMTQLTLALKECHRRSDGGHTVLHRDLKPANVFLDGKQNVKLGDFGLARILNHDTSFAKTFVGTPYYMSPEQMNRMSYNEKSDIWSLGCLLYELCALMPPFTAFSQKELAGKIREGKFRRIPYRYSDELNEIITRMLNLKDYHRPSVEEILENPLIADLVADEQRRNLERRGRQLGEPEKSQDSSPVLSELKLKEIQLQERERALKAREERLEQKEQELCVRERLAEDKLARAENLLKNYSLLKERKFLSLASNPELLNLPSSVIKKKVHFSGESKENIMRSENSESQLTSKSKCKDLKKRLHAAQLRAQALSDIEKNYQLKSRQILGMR
Tyrosine-protein kinase Lyn, sequence (P07948 whole entry, canonical isoform): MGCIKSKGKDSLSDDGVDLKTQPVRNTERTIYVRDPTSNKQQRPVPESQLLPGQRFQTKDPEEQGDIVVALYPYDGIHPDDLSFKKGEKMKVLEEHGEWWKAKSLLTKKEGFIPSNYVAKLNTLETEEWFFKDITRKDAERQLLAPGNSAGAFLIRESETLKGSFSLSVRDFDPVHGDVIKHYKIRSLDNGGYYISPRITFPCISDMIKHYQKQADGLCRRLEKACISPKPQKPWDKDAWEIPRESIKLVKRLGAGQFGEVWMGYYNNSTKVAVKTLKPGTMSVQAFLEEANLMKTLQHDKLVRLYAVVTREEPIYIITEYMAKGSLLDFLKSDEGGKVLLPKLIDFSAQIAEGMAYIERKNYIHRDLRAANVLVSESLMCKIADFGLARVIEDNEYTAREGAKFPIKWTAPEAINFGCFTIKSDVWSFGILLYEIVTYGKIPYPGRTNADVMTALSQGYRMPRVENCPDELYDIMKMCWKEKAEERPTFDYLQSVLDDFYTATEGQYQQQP
Phosphatidylinositol 4,5-bisphosphate 3-kinase catalytic subunit gamma isoform, sequence (P48736 whole entry, canonical isoform): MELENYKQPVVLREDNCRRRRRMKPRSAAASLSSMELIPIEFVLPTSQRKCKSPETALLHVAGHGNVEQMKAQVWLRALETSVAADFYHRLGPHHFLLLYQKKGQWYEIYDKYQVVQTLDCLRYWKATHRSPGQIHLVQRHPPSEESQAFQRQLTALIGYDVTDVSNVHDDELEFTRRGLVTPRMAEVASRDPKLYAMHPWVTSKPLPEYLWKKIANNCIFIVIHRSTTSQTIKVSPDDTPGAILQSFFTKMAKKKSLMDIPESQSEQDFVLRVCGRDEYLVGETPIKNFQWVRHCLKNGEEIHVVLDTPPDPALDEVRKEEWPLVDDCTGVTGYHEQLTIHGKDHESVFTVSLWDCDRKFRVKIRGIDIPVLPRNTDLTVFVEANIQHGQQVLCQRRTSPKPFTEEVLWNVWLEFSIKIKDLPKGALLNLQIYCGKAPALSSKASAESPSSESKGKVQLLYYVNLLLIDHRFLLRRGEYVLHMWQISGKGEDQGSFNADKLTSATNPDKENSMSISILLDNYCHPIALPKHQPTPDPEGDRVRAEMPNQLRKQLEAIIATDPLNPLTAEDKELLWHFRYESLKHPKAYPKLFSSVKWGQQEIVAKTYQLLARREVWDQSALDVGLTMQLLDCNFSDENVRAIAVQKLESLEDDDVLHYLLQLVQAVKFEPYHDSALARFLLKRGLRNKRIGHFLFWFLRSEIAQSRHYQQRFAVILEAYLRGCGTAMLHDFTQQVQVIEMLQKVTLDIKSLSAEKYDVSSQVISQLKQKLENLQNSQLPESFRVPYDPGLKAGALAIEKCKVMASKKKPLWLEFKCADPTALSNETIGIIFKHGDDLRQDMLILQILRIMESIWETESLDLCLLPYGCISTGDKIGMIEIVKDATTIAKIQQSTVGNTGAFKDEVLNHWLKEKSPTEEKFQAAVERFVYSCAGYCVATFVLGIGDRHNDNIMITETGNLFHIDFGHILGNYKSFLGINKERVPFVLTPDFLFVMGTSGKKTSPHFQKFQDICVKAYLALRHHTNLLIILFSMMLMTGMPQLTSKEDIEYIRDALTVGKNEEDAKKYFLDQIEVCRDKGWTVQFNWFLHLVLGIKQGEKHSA
5'-AMP-activated protein kinase catalytic subunit alpha-1, sequence (Q13131 whole entry): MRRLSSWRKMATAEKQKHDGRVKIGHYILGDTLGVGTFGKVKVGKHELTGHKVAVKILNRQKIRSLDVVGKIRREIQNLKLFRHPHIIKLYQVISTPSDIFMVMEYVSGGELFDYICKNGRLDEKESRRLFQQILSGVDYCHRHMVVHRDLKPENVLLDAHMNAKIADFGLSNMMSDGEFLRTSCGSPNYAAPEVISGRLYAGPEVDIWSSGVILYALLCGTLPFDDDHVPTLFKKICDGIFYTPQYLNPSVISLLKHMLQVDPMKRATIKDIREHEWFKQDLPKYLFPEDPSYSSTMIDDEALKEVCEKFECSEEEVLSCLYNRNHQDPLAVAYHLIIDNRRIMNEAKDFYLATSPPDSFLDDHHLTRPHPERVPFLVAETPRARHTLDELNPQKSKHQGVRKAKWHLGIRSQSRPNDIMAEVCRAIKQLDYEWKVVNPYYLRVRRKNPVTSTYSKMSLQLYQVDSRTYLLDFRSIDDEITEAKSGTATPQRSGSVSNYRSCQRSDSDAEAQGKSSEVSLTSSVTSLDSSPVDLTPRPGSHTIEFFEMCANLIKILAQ

Question: With CC(C)(C)NS(=O)(=O)c1cncc(-c2ccn3nc(N)nc3c2)c1 as the compound, how does the pIC50 [1] read?
Answer: The pIC50 was less than 5.00.

Question: What about the Cmax [2] of the same compound?
Answer: The Cmax was 5.9 µM.

Question: What about the pIC50 [3] of the same compound?
Answer: The pIC50 was less than 5.00.

Question: And the pIC50 [4]?
Answer: The pIC50 was less than 5.00.

Question: And the pIC50 (Aurora kinase B)?
Answer: The pIC50 was less than 5.00.

Question: What about the pIC50 [5] of the same compound?
Answer: The pIC50 was less than 5.00.

Question: What about the pIC50 [6] of the same compound?
Answer: Its pIC50 is less than 5.00.

Question: And the pIC50 [7]?
Answer: The pIC50 was less than 5.00.

Question: What about the pIC50 [8] of the same compound?
Answer: Its pIC50 is less than 5.00.

Question: And the pIC50 [9]?
Answer: The pIC50 was 5.97.

Question: And the pIC50 [10]?
Answer: The pIC50 was less than 5.00.

Question: What about the pIC50 [11] of the same compound?
Answer: Its pIC50 is less than 5.00.

Question: What about the Activity (Mus musculus [12]) of the same compound?
Answer: The Activity was 94%.

Question: What about the pIC50 (TGF-beta receptor type-1) of the same compound?
Answer: The pIC50 was less than 5.00.

Question: And the pIC50 [13]?
Answer: The pIC50 was less than 5.00.

Question: And the pIC50 [14]?
Answer: The pIC50 was less than 5.00.

Question: What about the pIC50 [15] of the same compound?
Answer: The pIC50 was less than 5.00.

Question: What about the “inhibition (INH)” value [16] of the same compound?
Answer: The value was “Not Active”.

Question: And the pIC50 [17]?
Answer: The pIC50 was less than 5.00.

Question: And the Activity (Mus musculus [18])?
Answer: Its Activity is 18%.

Question: What about the bioavailability [19] of the same compound?
Answer: The bioavailability was 88%.

Question: And the pIC50 [20]?
Answer: Its pIC50 is less than 5.23.

Question: And the pIC50 [21]?
Answer: The pIC50 was less than 5.00.

Question: And the half-life [22]?
Answer: Its half-life is 1.2 h.

Question: What about the pIC50 [23] of the same compound?
Answer: The pIC50 was less than 5.00.

Question: And the pIC50 [24]?
Answer: The pIC50 was 6.15.

Question: And the pIC50 [25]?
Answer: Its pIC50 is less than 5.00.

Question: What about the pIC50 [26] of the same compound?
Answer: Its pIC50 is 7.61.

Question: What about the pIC50 [27] of the same compound?
Answer: Its pIC50 is less than 5.00.

Question: What about the pIC50 [28] of the same compound?
Answer: The pIC50 was less than 5.00.

Question: And the pIC50 [29]?
Answer: Its pIC50 is less than 5.00.

Question: What about the “inhibition (INH)” value (Cytochrome P450 3A4) of the same compound?
Answer: The value was “Active”.

Question: And the pIC50 (Aurora kinase A)?
Answer: The pIC50 was less than 5.00.

Question: What about the pIC50 [30] of the same compound?
Answer: The pIC50 was less than 5.00.

Question: What about the clearance [31] of the same compound?
Answer: Its clearance is 1.6 mL/min/kg.

Question: What about the AUC [32] of the same compound?
Answer: The AUC was 15.3 µM·h.

Question: And the pIC50 (Activin receptor type-2B)?
Answer: The pIC50 was less than 5.00.
